These are literature values, as cited in patent publication US20040214861A1, “Compositions of a cyclooxygenase-2 selective inhibitors and 5-HT1B1D antagonists for the treatment and prevention of migraine” (Pharmacia Corporation, priority 2003, published 2004).

Structures are written as SMILES.

The conditions of the data set: at one and two hours after administration; compared with sumatriptan.

Regarding `CN1CCC[C@@H]1Cc1c[nH]c2ccc(CCS(=O)(=O)c3ccccc3)cc12` [eletriptan], the effectiveness after administration entry was “greater effectiveness at one and two hours after administration than sumatriptan”.
